Assays:
[1] = biological target: PTPN11-E76K mutant enzyme (Homo sapiens (Human), UniProt Q06124, E76K); test: PTPN11 Enzymatic Assay (DiFMUP phosphatase activity); type: biochemical; details: full length PTPN11-E76K, DiFMUP substrate; read-out: IC50, inhibition of PTPN11-E76K mutant enzyme
KYSE520 xenografts = test: In vivo anti-tumor efficacy, KYSE520 xenograft model; parameters: species or system NSG (NOD scid gamma) mice; details: NSG mice, subcutaneous KYSE520 xenografts, oral gavage once a day for 21 days

PTPN11-E76K mutant enzyme, sequence (Q06124 whole entry E76K): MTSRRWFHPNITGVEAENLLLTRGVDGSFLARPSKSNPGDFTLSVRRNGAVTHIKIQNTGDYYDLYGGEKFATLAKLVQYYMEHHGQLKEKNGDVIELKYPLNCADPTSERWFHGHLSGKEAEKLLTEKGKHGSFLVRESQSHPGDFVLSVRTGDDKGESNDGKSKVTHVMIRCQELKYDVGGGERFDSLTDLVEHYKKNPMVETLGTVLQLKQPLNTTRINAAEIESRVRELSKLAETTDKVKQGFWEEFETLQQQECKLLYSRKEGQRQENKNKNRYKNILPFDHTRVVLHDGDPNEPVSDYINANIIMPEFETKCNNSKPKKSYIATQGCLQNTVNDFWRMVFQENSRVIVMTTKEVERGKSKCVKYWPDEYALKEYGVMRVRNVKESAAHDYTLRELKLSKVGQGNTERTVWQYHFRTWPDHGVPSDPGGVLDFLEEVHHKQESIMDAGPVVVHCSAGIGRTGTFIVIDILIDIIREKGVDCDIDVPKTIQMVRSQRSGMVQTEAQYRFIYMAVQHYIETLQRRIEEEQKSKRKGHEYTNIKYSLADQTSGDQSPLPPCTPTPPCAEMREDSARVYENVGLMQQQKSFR

Structure (SMILES)	IC50 [1]	tumor growth inhibition (KYSE520 xenografts)
Cc1c(N2CCC3(CC2)CO[C@@H](C)[C@H]3N)nc(C)n(-c2ccc(Oc3ccn(C)n3)c(Cl)c2Cl)c1=O (atropisomer, axis not shown; (Sa)) [Example 18a, 6-((3S, 4S)-4-Amino-3-methyl-2-oxa-8-azaspiro[4.5]decan-8-yl)-3-(Sa)-(2,3-dichloro-4-((1-methyl-1H-pyrazol-3-yl)oxy)phenyl)-2,5-dimethylpyrimidin-4(3H)-one]	511 nM	
Cc1nc(N2CCC3(CC2)CO[C@@H](C)[C@H]3N)cc(=O)n1-c1cccc(F)c1F [Example 5, 6-[(3S,4S)-4-amino-3-methyl-2-oxa-8-azaspiro[4.5]decan-8-yl]-3-(2,3-difluorophenyl)-2-methyl-3,4-dihydropyrimidin-4-one]	1170 nM	
Cc1c(N2CCC3(CC2)CO[C@@H](C)[C@H]3N)nc(C)n(-c2ccc(Oc3cc[nH]n3)c(Cl)c2Cl)c1=O (atropisomer, axis not shown; (Ra)) [Example 20b, 3-(4-((1H-pyrazol-3-yl)oxy)-(Ra)-2,3-dichlorophenyl)-6-((3S, 4S)-4-amino-3-methyl-2-oxa-8-azaspiro[4.5]decan-8-yl)-2,5-dimethylpyrimidin-4(3H)-one]	5 nM	
Cc1nc(N2CCC3(CC2)CO[C@@H](C)[C@H]3N)cc(=O)n1-c1cccc(C(F)(F)F)c1Cl (atropisomer, axis not shown; (Sa)) [Example 14a, 6-((3S, 4S)-4-Amino-3-methyl-2-oxa-8-azaspiro[4.5]decan-8-yl)-3-(Sa)-(2-chloro-3-(trifluoromethyl)phenyl)-2-methylpyrimidin-4(3H)-one]	> 1000 nM	
Cc1cccc(-n2c(C)nc(N3CCC4(CC3)CO[C@@H](C)[C@H]4N)cc2=O)c1Cl (atropisomer, axis not shown; (Ra)) [Example 13b, 6-((3S, 4S)-4-amino-3-methyl-2-oxa-8-azaspiro[4.5]decan-8-yl)-3-(Ra)-(2-chloro-3-methylphenyl)-2-methylpyrimidin-4(3H)-one]	186 nM	
Cc1nc(N2CCC3(CC2)CO[C@@H](C)[C@H]3N)cc(=O)n1-c1cccc(C(F)(F)F)c1Cl (atropisomer, axis not shown; (Ra)) [Example 14b, 6-((3 S, 4S)-4-Amino-3-methyl-2-oxa-8-azaspiro[4.5]decan-8-yl)-3-(Ra)-(2-chloro-3-(trifluoromethyl)phenyl)-2-methylpyrimidin-4(3H)-one]	703 nM	
Cc1nc(N2CCC3(CC2)CO[C@@H](C)[C@H]3N)cc(=O)n1-c1ccc(Br)c(Cl)c1Cl [Example 6, 6-((3S,4S)-4-amino-3-methyl-2-oxa-8-azaspiro[4.5]decan-8-yl)-3-(4-bromo-2,3-dichlorophenyl)-2-methylpyrimidin-4(3H)-one]	203 nM	
Cc1nc(N2CCC3(CC2)CO[C@@H](C)[C@H]3N)c(Cl)c(=O)n1-c1ccnc(Cl)c1Cl [Example 17, 6-((3S, 4S)-4-Amino-3-methyl-2-oxa-8-azaspiro[4.5]decan-8-yl)-5-chloro-3-(2,3-dichloropyridin-4-yl)-2-methylpyrimidin-4(3H)-one]	618 nM	
COc1cccc(-n2c(C)nc(N3CCC4(CC3)CO[C@@H](C)[C@H]4N)cc2=O)c1Cl (atropisomer, axis not shown; (Sa)) [Example 7a, 6-((3S,4S)-4-amino-3-methyl-2-oxa-8-azaspiro[4.5]decan-8-yl)-3-(Sa)-(2-chloro-3-methoxyphenyl)-2-methylpyrimidin-4(3H)-one]	> 10000 nM	
Cc1nc(N2CCC3(CC2)CO[C@@H](C)[C@H]3N)cc(=O)n1-c1ccc(Oc2ccccc2)c(Cl)c1Cl (atropisomer, axis not shown; (Sa)) [Example 15a, 6-((3S, 4S)-4-Amino-3-methyl-2-oxa-8-azaspiro[4.5]decan-8-yl)-3-(Sa)-(2,3-dichloro-4-phenoxyphenyl)-2-methylpyrimidin-4(3H)-one]	> 1000 nM	
Cc1c(N2CCC3(CC2)CO[C@@H](C)[C@H]3N)nc(C)n(-c2cccc(Cl)c2Cl)c1=O (atropisomer, axis not shown; (Sa)) [Example 10a, 6-((3S, 4S)-4-Amino-3-methyl-2-oxa-8-azaspiro[4.5]decan-8-yl)-3-(Sa)-(2,3-dichlorophenyl)-2,5-dimethylpyrimidin-4(3H)-one]	2580 nM	
Cc1nc(N2CCC3(CC2)CO[C@@H](C)[C@H]3N)cc(=O)n1-c1ccc(Oc2ccn(C)n2)c(Cl)c1Cl (atropisomer, axis not shown; (Sa)) [Example 16a, 6-((3 S, 4S)-4-Amino-3-methyl-2-oxa-8-azaspiro[4.5]decan-8-yl)-3-(Sa)-(2,3-dichloro-4-((1-methyl-1H-pyrazol-3-yl)oxy)phenyl)-2-methylpyrimidin-4(3H)-one]	9550 nM	

Further molecules by falling IC50 [1], results first:

IC50 [1]	Structure (SMILES)	tumor growth inhibition (KYSE520 xenografts)
7500 nM	Cc1cccc(-n2c(C)nc(N3CCC4(CC3)CO[C@@H](C)[C@H]4N)cc2=O)c1Cl (atropisomer, axis not shown; (Sa)) [Example 13a, 6-((3S, 4S)-4-Amino-3-methyl-2-oxa-8-azaspiro[4.5]decan-8-yl)-3-(Sa)-(2-chloro-3-methylphenyl)-2-methylpyrimidin-4(3H)-one]	
3460 nM	Cc1nc(N2CCC3(CC2)CO[C@@H](C)[C@H]3N)c(Br)c(=O)n1-c1cccc(Cl)c1Cl (atropisomer, axis not shown; (Sa)) [Example 12a, 6-((3S, 4S)-4-Amino-3-methyl-2-oxa-8-azaspiro[4.5]decan-8-yl)-5-bromo-3-(Sa)-(2,3-dichlorophenyl)-2-methylpyrimidin-4(3H)-one]	
480 nM	CCC1(N)CCN(c2cc(=O)n(-c3cccc(Cl)c3Cl)c(C)n2)CC1 [Example 4, 6-(4-amino-4-ethylpiperidin-1-yl)-3-(2,3-dichlorophenyl)-2-methyl-3,4-dihydropyrimidin-4-one]	
360 nM	Cc1nc(N2CCC3(CC2)CO[C@@H](C)[C@H]3N)cc(=O)n1-c1cccc(Cl)c1Br [Example 8, 6-((3S,4S)-4-amino-3-methyl-2-oxa-8-azaspiro[4.5]decan-8-yl)-3-(2-bromo-3-chlorophenyl)-2-methylpyrimidin-4(3H)-one]	
310 nM	Cc1nc(N2CCC(C)(CN)CC2)cc(=O)n1-c1cccc(Cl)c1Cl [Example 3, 6-[4-(aminomethyl)-4-methylpiperidin-1-yl]-3-(2,3-dichlorophenyl)-2-methyl-3,4-dihydropyrimidin-4-one]	
153 nM	COc1cccc(-n2c(C)nc(N3CCC4(CC3)CO[C@@H](C)[C@H]4N)cc2=O)c1Cl (atropisomer, axis not shown; (Ra)) [Example 7b, 6-((3S,4S)-4-amino-3-methyl-2-oxa-8-azaspiro[4.5]decan-8-yl)-3-(Ra)-(2-chloro-3-methoxyphenyl)-2-methylpyrimidin-4(3H)-one]	
148 nM	Cc1nc(N2CCC3(CC2)CO[C@@H](C)[C@H]3N)cc(=O)n1-c1ccc(Oc2ccccc2)c(Cl)c1Cl (atropisomer, axis not shown; (Ra)) [Example 15b, 6-((3S, 4S)-4-amino-3-methyl-2-oxa-8-azaspiro[4.5]decan-8-yl)-3-(Ra)-(2,3-dichloro-4-phenoxyphenyl)-2-methylpyrimidin-4(3H)-one]	
92 nM	Cc1nc(N2CCC3(CC2)CO[C@@H](C)[C@H]3N)cc(=O)n1-c1ccc(Oc2ccn(C)n2)c(Cl)c1Cl (atropisomer, axis not shown; (Ra)) [Example 16b, 6-((3 S, 4S)-4-Amino-3-methyl-2-oxa-8-azaspiro[4.5]decan-8-yl)-3-(Ra)-(2,3-dichloro-4-((1-methyl-1H-pyrazol-3-yl)oxy)phenyl)-2-methylpyrimidin-4(3H)-one]	
28 nM	Cc1c(N2CCC3(CC2)CO[C@@H](C)[C@H]3N)nc(C)n(-c2cccc(Cl)c2Cl)c1=O (atropisomer, axis not shown; (Ra)) [Example 10b, 6-((3S, 4S)-4-amino-3-methyl-2-oxa-8-azaspiro[4.5]decan-8-yl)-3-(Ra)-(2,3-dichlorophenyl)-2,5-dimethylpyrimidin-4(3H)-one]	dose-dependent tumor growth inhibition
20 nM	Cc1nc(N2CCC3(CC2)CO[C@@H](C)[C@H]3N)c(Br)c(=O)n1-c1cccc(Cl)c1Cl (atropisomer, axis not shown; (Ra)) [Example 12b, 6-((3S, 4S)-4-amino-3-methyl-2-oxa-8-azaspiro[4.5]decan-8-yl)-5-bromo-3-(Ra)-(2,3-dichlorophenyl)-2-methylpyrimidin-4(3H)-one]	
12 nM	CNC(=O)c1ccc(Oc2ccc(-n3c(C)nc(N4CCC5(CC4)CO[C@@H](C)[C@H]5N)c(C)c3=O)c(Cl)c2Cl)cc1 (atropisomer, axis not shown; (Ra)) [Example 19b]	
3 nM	Cc1c(N2CCC3(CC2)CO[C@@H](C)[C@H]3N)nc(C)n(-c2ccc(Oc3ccn(C)n3)c(Cl)c2Cl)c1=O (atropisomer, axis not shown; (Ra)) [Example 18b, 6-((3 S, 4 S)-4-Amino-3-methyl-2-oxa-8-azaspiro[4.5]decan-8-yl)-3-(Ra)-(2,3-dichloro-4-((1-methyl-1H-pyrazol-3-yl)oxy)phenyl)-2,5-dimethylpyrimidin-4(3H)-one]	
